These results are taken from patent US20100056563A1, “NOVEL 1.8-NAPHTHYRIDINE COMPOUNDS” (priority 2007, published 2010).

Usually IC50 stands for the concentration needed to halve the response being measured. Read a low IC50 as higher potency.

The target of this assay is T1, FLAG-tagged full length PHD2 (Homo sapiens, UniProt Q9GZT9).
T1 construct: FLAG-tagged full length PHD2; FLAG; made in house; host or cells: baculovirus-infected Sf9 cells
T1 sequence (Q9GZT9 whole entry): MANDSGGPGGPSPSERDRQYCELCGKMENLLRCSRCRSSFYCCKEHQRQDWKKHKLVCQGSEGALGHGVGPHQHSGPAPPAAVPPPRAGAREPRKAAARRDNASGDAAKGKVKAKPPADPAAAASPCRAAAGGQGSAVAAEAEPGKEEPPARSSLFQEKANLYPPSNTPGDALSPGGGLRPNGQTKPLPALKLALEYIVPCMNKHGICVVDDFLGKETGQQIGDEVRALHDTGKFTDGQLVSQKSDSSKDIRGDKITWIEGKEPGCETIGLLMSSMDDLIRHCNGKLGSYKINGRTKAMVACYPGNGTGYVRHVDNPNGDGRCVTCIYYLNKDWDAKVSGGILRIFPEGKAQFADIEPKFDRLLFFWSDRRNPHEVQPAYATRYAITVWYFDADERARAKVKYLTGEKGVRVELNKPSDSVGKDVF
The assay can be described thus: HIF-PHD2 time resolved fluorescence inhibition assay (HIF-1α peptide hydroxylation, VHL complex detection). The settings on record: 0.2 μM 2-oxoglutarate, 0.5 μM HIF-1α peptide, 2 hr at room temperature. The class given is biochemical. On the procedure: To each well of a 96-well plate was added […] of test compound in DMSO and 20 μl of assay buffer (50 mM Tris pH 7.4/0.01% Tween-20/0.1 mg/ml bovine serum albumin/10 μM ferrous sulfate/1 mM sodium ascorbate/20 μg/ml catalase) containing 0.15 μg/ml FLAG-tagged full length PHD2 expressed in and purified from baculovirus-infected Sf9 cells. After a […] preincubation at room temperature, the enzymatic reactions were initiated by the addition of 4 μL of substrates (final concentrations of 0.2 μM 2-oxoglutarate and 0.5 μM HIF-1α peptide biotinyl-DLDLEMLAPYIPMDDDFQL). After 2 hr at room temperature, the reactions were terminated and signals were developed by the addition of a 25 μL quench/detection mix to a final concentration of 1 mM ortho-phenanthroline, 0.1 mM EDTA, 0.5 nM anti-(His)6 LANCE reagent (Perkin-Elmer Life Sciences), 100 nM AF647-labeled streptavidin (Invitrogen), and 2 μg/ml (His)6-VHL complex (S. Tan (2001) Protein Expr. Purif. 21, 224-234). The ratio of time resolved fluorescence signals at 665 and 620 nm was determined, and percent inhibition was calculated relative to an uninhibited control sample run in parallel.
Regarding `O=C(O)CNC(=O)c1c(O)c2cccnc2n(Cc2ccc(C(F)(F)F)cc2)c1=O` [Example 1, N-({4-Hydroxy-2-oxo-1-[4-(trifluoromethyl)benzyl]-1,2-dihydro-1,8-naphthyridin-3-yl}carbonyl)glycine], the IC50 was found to be 2.1 nM.

The compound `C[C@H](NC(=O)c1c(O)c2cccnc2n(Cc2ccc(C(F)(F)F)cc2F)c1=O)C(=O)O` [Example 39, (2S)-2-[({1-[2-Fluoro-4-(trifluoromethyl)benzyl]-4-hydroxy-2-oxo-1,2-dihydro-1,8-naphthyridin-3-yl}carbonyl)amino]propanoic acid] gave an IC50 of 8.2 nM.

As to `CC(C)(C)c1csc(Cn2c(=O)c(C(=O)NCC(=O)O)c(O)c3cccnc32)n1` [Example 25, N-({1-[(4-tert-Butyl-1,3-thiazol-2-yl)methyl]-4-hydroxy-2-oxo-1,2-dihydro-1,8-naphthyridin-3-yl}carbonyl)glycine], half-maximal inhibition (IC50) required 2 nM.
